Residue numbers refer to the chain shown, from its start. Calls of active or inactive are those of the source. The calls are words filed in the database; no cut-off is given here. Numbered stars: 1 amine (or outer) side, 2 acyl side, 3 side chain; on linkers, the order of the positions; unused ones are H or OH. Bridge positions count the residues as written; N and C are the ends. Square brackets hold non-standard residues; d marks the D form. Peptide text beside a SMILES is read from it. I, II: the chains in the order shown. * marks the point of attachment. Sebacoyl = O=C(CCCCCCCCC(=O)[*:2])[*:1]; C14 diacid = O=C(O)CCCCCCCCCCCCC(=O)*; C12 diacid = O=C(O)CCCCCCCCCCC(=O)*; Adipoyl = O=C(CCCCC(=O)[*:2])[*:1]; Octanoyl = CCCCCCCC(=O)*; Mpa = O=C(O)CCS
Experiments:
Mus musculus = experiment: Effect on social behavior in OXTR+/- DBA/2J mouse assessed as increase in time spent exploring stranger mouse over time spent exploring empty cage at 0.5 ng/mouse, icv administered as single dose measured for 10 mins by three chamber method; assay type: functional, organism-based
Danio rerio = experiment: Effect on social behavior in zebra fish assessed as increase in time spent swimming parallel to nacre mutant fish over time spent shoaling close to wild type fish at 0.75 ng/kg, im; assay type: functional, organism-based
[1] = biological target: T1, Oxytocin receptor (Homo sapiens) (UniProt P30559); experiment: (§1) Agonist activity at human oxytocin receptor expressed in HEK293 cells coexpressing Rluc8-tagged Galphaq, N-terminal GFP-tagged Ggamma2 and Gbeta1 protein incubated for 2 mins by Gq protein activation based BRET assay; assay type: cell-based; design: unit not given here
T1 sequence (whole entry): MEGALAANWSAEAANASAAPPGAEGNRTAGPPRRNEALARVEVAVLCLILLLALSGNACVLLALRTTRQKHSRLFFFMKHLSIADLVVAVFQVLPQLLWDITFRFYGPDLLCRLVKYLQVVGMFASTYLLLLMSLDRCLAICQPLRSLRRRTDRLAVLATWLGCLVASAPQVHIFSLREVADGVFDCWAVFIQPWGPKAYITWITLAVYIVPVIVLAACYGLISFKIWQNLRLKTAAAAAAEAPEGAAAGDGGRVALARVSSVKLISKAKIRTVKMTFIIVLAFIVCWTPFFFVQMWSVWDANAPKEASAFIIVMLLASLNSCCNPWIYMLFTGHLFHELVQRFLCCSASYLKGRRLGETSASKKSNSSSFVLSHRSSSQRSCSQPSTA

Oxytocin receptor [2] = biological target: T2, Oxytocin receptor (Homo sapiens, UniProt P30559); experiment: as §1; assay type: cell-based
T2 sequence (P30559 whole entry): T1 sequence (whole entry)

[3] = system: T3, Oxytocin receptor (Homo sapiens), P30559 [C47A]; experiment: (§2) Agonist activity at human oxytocin receptor C47A mutant expressed in HEK293 cells coexpressing Rluc8-tagged Galphaq, N-terminal GFP-tagged Ggamma2 and Gbeta1 protein incubated for 2 mins by Gq protein activation based BRET assay; assay type: cell-based; design: unit not given here
T3 sequence (whole entry): T1 sequence (whole entry) with C47A

Oxytocin receptor [4] = biological target: T4, Oxytocin receptor (Homo sapiens, UniProt P30559, C47A); experiment: as §2; assay type: cell-based
[5] = system: T5, Oxytocin receptor (Homo sapiens), P30559 [V43A,C47A]; experiment: (§3) Agonist activity at human oxytocin receptor V43A/C47A double mutant expressed in HEK293 cells coexpressing Rluc8-tagged Galphaq, N-terminal GFP-tagged Ggamma2 and Gbeta1 protein incubated for 2 mins by Gq protein activation based BRET assay; assay type: cell-based; design: unit not given here
T5 sequence (whole entry): T1 sequence (whole entry) with V43A, C47A

Oxytocin receptor [6] = biological target: T6, Oxytocin receptor (Homo sapiens, UniProt P30559, C47A/V43A); experiment: as §3; assay type: cell-based
Oxytocin receptor [7] = biological target: T4, Oxytocin receptor; experiment: Agonist activity at human oxytocin receptor C47A mutant high affinity site expressed in HEK293 cells coexpressing Rluc8-tagged Galphaq, N-terminal GFP-tagged Ggamma2 and Gbeta1 protein incubated for 2 mins by Gq protein activation based BRET assay; assay type: cell-based
Oxytocin receptor [8] = biological target: T4, Oxytocin receptor; experiment: Agonist activity at human oxytocin receptor C47A mutant low affinity site expressed in HEK293 cells coexpressing Rluc8-tagged Galphaq, N-terminal GFP-tagged Ggamma2 and Gbeta1 protein incubated for 2 mins by Gq protein activation based BRET assay; assay type: cell-based
[9] = biological target: T1, Oxytocin receptor (Homo sapiens); experiment: (§4) Agonist activity at human oxytocin receptor expressed in HEK293 cells coexpressing Rluc8-tagged Galphaq, N-terminal GFP-tagged Ggamma2 and Gbeta1 protein incubated for 2 mins in presence of TMH1-TAT peptide by Gq protein activation based BRET assay; assay type: cell-based; design: unit not given here
Oxytocin receptor [10] = biological target: T2, Oxytocin receptor; experiment: as §4; assay type: cell-based
[11] = biological target: T1, Oxytocin receptor (Homo sapiens); experiment: (§5) Agonist activity at human oxytocin receptor expressed in HEK293 cells coexpressing Rluc8-tagged Galphaq, N-terminal GFP-tagged Ggamma2 and Gbeta1 protein incubated for 2 mins in presence of TMH5-TAT peptide by Gq protein activation based BRET assay; assay type: cell-based; design: unit not given here
Oxytocin receptor [12] = biological target: T2, Oxytocin receptor; experiment: as §5; assay type: cell-based
Oxytocin receptor [13] = biological target: T6, Oxytocin receptor; experiment: Agonist activity at human oxytocin receptor V43A/C47A double mutant high affinity site expressed in HEK293 cells coexpressing Rluc8-tagged Galphaq, N-terminal GFP-tagged Ggamma2 and Gbeta1 protein incubated for 2 mins by Gq protein activation based BRET assay; assay type: cell-based
Oxytocin receptor [14] = biological target: T6, Oxytocin receptor; experiment: Agonist activity at human oxytocin receptor V43A/C47A double mutant low affinity site expressed in HEK293 cells coexpressing Rluc8-tagged Galphaq, N-terminal GFP-tagged Ggamma2 and Gbeta1 protein incubated for 2 mins by Gq protein activation based BRET assay; assay type: cell-based
Oxytocin receptor [15] = biological target: T2, Oxytocin receptor; experiment: Agonist activity at human oxytocin receptor high affinity site expressed in HEK293 cells coexpressing Rluc8-tagged Galphaq, N-terminal GFP-tagged Ggamma2 and Gbeta1 protein incubated for 2 mins by Gq protein activation based BRET assay; assay type: cell-based
Oxytocin receptor [16] = biological target: T2, Oxytocin receptor; experiment: Agonist activity at human oxytocin receptor low affinity site expressed in HEK293 cells coexpressing Rluc8-tagged Galphaq, N-terminal GFP-tagged Ggamma2 and Gbeta1 protein incubated for 2 mins by Gq protein activation based BRET assay; assay type: cell-based
Oxytocin receptor [17] = biological target: T2, Oxytocin receptor; experiment: Agonist activity at human oxytocin receptor high affinity site expressed in HEK293 cells coexpressing Rluc8-tagged Galphaq, N-terminal GFP-tagged Ggamma2 and Gbeta1 protein incubated for 2 mins in presence of TMH5-TAT peptide by Gq protein activation based BRET assay; assay type: cell-based
Oxytocin receptor [18] = biological target: T2, Oxytocin receptor; experiment: Agonist activity at human oxytocin receptor low affinity site expressed in HEK293 cells coexpressing Rluc8-tagged Galphaq, N-terminal GFP-tagged Ggamma2 and Gbeta1 protein incubated for 2 mins in presence of TMH5-TAT peptide by Gq protein activation based BRET assay; assay type: cell-based
[19] = biological target: T1, Oxytocin receptor (Homo sapiens); experiment: Displacement of [125I]-OVTA from human oxytocin receptor expressed in COS7 cell membrane; assay type: cell membranes
[20] = biological target: T1, Oxytocin receptor (Homo sapiens); experiment: Ratio of EC50 for human oxytocin receptor high affinity site expressed in HEK293 cells coexpressing Rluc8-tagged Galphaq, N-terminal GFP-tagged Ggamma2 and Gbeta1 protein to Ki for human oxytocin receptor high affinity site expressed in COS7 cell membrane; assay type: cell-based
[21] = biological target: T1, Oxytocin receptor (Homo sapiens); experiment: Ratio of EC50 for human oxytocin receptor low affinity site expressed in HEK293 cells coexpressing Rluc8-tagged Galphaq, N-terminal GFP-tagged Ggamma2 and Gbeta1 protein to Ki for human oxytocin receptor low affinity site expressed in COS7 cell membrane; assay type: cell-based

T4 sequence (P30559 whole entry C47A): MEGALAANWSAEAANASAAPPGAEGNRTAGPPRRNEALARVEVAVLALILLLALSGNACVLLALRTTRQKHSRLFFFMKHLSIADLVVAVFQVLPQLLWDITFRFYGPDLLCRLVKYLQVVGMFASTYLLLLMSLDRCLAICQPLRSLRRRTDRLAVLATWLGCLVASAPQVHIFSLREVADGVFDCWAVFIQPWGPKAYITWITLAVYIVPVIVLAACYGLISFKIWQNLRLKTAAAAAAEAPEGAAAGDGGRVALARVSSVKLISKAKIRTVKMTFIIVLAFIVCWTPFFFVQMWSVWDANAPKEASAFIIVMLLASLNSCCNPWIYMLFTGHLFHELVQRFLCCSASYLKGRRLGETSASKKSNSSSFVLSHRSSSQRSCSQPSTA
T6 sequence (P30559 whole entry V43A/C47A): as the sequence (P30559 whole entry C47A) above, with V43A counted along it

Row | Emax [1] | EC50 (Oxytocin receptor [2]) [nM] | Emax [3] | EC50 (Oxytocin receptor [4]) [nM] | Emax [5] | EC50 (Oxytocin receptor [6]) [nM] | Emax [9] | EC50 (Oxytocin receptor [10]) [nM] | Emax [11] | EC50 (Oxytocin receptor [12]) [nM] | Structure (SMILES) | other results
1 | -0.11 | 20.1 | -0.13 |  | -0.08 | 182 | -0.16 | 37.9 | -0.15 | 14 | CC[C@H](C)[C@@H]1NC(=O)[C@H](Cc2ccc(O)cc2)NC(=O)CCSSC[C@@H](C(=O)N2CCC[C@H]2C(=O)N[C@@H](CCCCNC(=O)CCCCCCCCCCC(=O)NCCCC[C@H](NC(=O)[C@@H]2CCCN2C(=O)[C@@H]2CSSCCC(=O)N[C@@H](Cc3ccc(O)cc3)C(=O)N[C@@H]([C@@H](C)CC)C(=O)N[C@@H](CCC(N)=O)C(=O)N[C@@H](CC(N)=O)C(=O)N2)C(=O)NCC(N)=O)C(=O)NCC(N)=O)NC(=O)[C@H](CC(N)=O)NC(=O)[C@H](CCC(N)=O)NC1=O (I: [Mpa]YIQNCPKG-NH2 / II: [Mpa]YIQNCPKG-NH2; disulfide I:1-I:6, II:1-II:6; linker I:8-II:8 via C12 diacid) | EC50 (Oxytocin receptor [7]): 0.0012 nM; EC50 (Oxytocin receptor [8]): 135 nM
2 | -0.1 | 29.4 | -0.11 |  | -0.11 |  | -0.144 | 15.4 | -0.145 | 59 | CC[C@H](C)[C@@H]1NC(=O)[C@H](Cc2ccc(O)cc2)NC(=O)CCSSC[C@@H](C(=O)N2CCC[C@H]2C(=O)N[C@@H](CCCCNC(=O)CCCCCCCCCCCCC(=O)NCCCC[C@H](NC(=O)[C@@H]2CCCN2C(=O)[C@@H]2CSSCCC(=O)N[C@@H](Cc3ccc(O)cc3)C(=O)N[C@@H]([C@@H](C)CC)C(=O)N[C@@H](CCC(N)=O)C(=O)N[C@@H](CC(N)=O)C(=O)N2)C(=O)NCC(N)=O)C(=O)NCC(N)=O)NC(=O)[C@H](CC(N)=O)NC(=O)[C@H](CCC(N)=O)NC1=O (I: [Mpa]YIQNCPKG-NH2 / II: [Mpa]YIQNCPKG-NH2; disulfide I:1-I:6, II:1-II:6; linker I:8-II:8 via C14 diacid) | EC50 (Oxytocin receptor [7]): 0.0014 nM; EC50 (Oxytocin receptor [8]): 301 nM; EC50 (Oxytocin receptor [13]): 0.011 nM; EC50 (Oxytocin receptor [14]): 867 nM
3 | -0.1 |  | -0.14 | 21.7 | -0.14 | 40.5 | -0.15 | 17.3 | -0.17 |  | CC[C@H](C)[C@@H]1NC(=O)[C@H](Cc2ccc(O)cc2)NC(=O)CCSSC[C@@H](C(=O)N2CCC[C@H]2C(=O)N[C@@H](CCCCNC(=O)CCCCCCCCC(=O)NCCCC[C@H](NC(=O)[C@@H]2CCCN2C(=O)[C@@H]2CSSCCC(=O)N[C@@H](Cc3ccc(O)cc3)C(=O)N[C@@H]([C@@H](C)CC)C(=O)N[C@@H](CCC(N)=O)C(=O)N[C@@H](CC(N)=O)C(=O)N2)C(=O)NCC(N)=O)C(=O)NCC(N)=O)NC(=O)[C@H](CC(N)=O)NC(=O)[C@H](CCC(N)=O)NC1=O (I: [Mpa]YIQNCPKG-NH2 / II: [Mpa]YIQNCPKG-NH2; disulfide I:1-I:6, II:1-II:6; linker I:8-II:8 via Sebacoyl) | EC50 (Oxytocin receptor [15]): 0.0028 nM; EC50 (Oxytocin receptor [16]): 13 nM; EC50 (Oxytocin receptor [17]): 0.00257 nM; EC50 (Oxytocin receptor [18]): 11 nM

Continued, compound first:

Row | Structure (SMILES) | Emax [1] | EC50 (Oxytocin receptor [2]) [nM] | Emax [3] | EC50 (Oxytocin receptor [4]) [nM] | Emax [5] | EC50 (Oxytocin receptor [6]) [nM] | Emax [9] | EC50 (Oxytocin receptor [10]) [nM] | Emax [11] | EC50 (Oxytocin receptor [12]) [nM] | other results
4 | CC[C@H](C)[C@@H]1NC(=O)[C@H](Cc2ccc(O)cc2)NC(=O)[C@@H](N)CSSC[C@@H](C(=O)N2CCC[C@H]2C(=O)N[C@@H](CC(C)C)C(=O)NCC(N)=O)NC(=O)[C@H](CC(N)=O)NC(=O)[C@H](CCC(N)=O)NC1=O |  |  |  |  |  |  |  |  |  |  | Activity (Mus musculus): Active
5 | CC[C@H](C)[C@@H]1NC(=O)[C@H](Cc2ccc(O)cc2)NC(=O)[C@@H](N)CSSC[C@@H](C(=O)N2CCC[C@H]2C(=O)N[C@H](C(=O)NCC(N)=O)[C@@H](C)CC)NC(=O)[C@H](CC(N)=O)NC(=O)[C@H](CO)NC1=O (H-CYISNCPIG-NH2; disulfide 1-6) |  |  |  |  |  |  |  |  |  |  | Activity (Danio rerio): Active
6 | CC[C@H](C)[C@@H]1NC(=O)[C@H](Cc2ccc(O)cc2)NC(=O)CCSSC[C@@H](C(=O)N2CCC[C@H]2C(=O)N[C@@H](CCCCNC(=O)CCCCC(=O)NCCCC[C@H](NC(=O)[C@@H]2CCCN2C(=O)[C@@H]2CSSCCC(=O)N[C@@H](Cc3ccc(O)cc3)C(=O)N[C@@H]([C@@H](C)CC)C(=O)N[C@@H](CCC(N)=O)C(=O)N[C@@H](CC(N)=O)C(=O)N2)C(=O)NCC(N)=O)C(=O)NCC(N)=O)NC(=O)[C@H](CC(N)=O)NC(=O)[C@H](CCC(N)=O)NC1=O (I: [Mpa]YIQNCPKG-NH2 / II: [Mpa]YIQNCPKG-NH2; disulfide I:1-I:6, II:1-II:6; linker I:8-II:8 via Adipoyl) | -0.13 | 11.8 | -0.13 | 21.9 | -0.14 | 25.6 |  |  |  |  | 
7 | CCCCCCCC(=O)NCCCC[C@H](NC(=O)[C@@H]1CCCN1C(=O)[C@@H]1CSSCCC(=O)N[C@@H](Cc2ccc(O)cc2)C(=O)N[C@@H]([C@@H](C)CC)C(=O)N[C@@H](CCC(N)=O)C(=O)N[C@@H](CC(N)=O)C(=O)N1)C(=O)NCC(N)=O ([Mpa]YIQNCPK(Octanoyl)G-NH2; disulfide 1-6) | -0.11 | 4.1 |  |  |  |  |  |  |  |  | 
8 | CC[C@H](C)[C@@H]1NC(=O)[C@H](Cc2ccc(O)cc2)NC(=O)CCSSC[C@@H](C(=O)N2CCC[C@H]2C(=O)N[C@@H](CCCCN)C(=O)NCC(N)=O)NC(=O)[C@H](CC(N)=O)NC(=O)[C@H](CCC(N)=O)NC1=O ([Mpa]YIQNCPKG-NH2; disulfide 1-6) | -0.11 to -0.1 | 4 | -0.15 | 2.8 | -0.08 | 33.4 | -0.15 | 0.92 | -0.14 | 0.75 | EC50 (Oxytocin receptor [15]): 0.265 nM; EC50 (Oxytocin receptor [16]): 74.8 nM; KiH [19]: 21 pM; KiL [19]: 3.35 nM; Ratio [20]: 10; Ratio [21]: 10

Reference: ChEMBL document CHEMBL4477229, “Design and Characterization of Superpotent Bivalent Ligands Targeting Oxytocin Receptor Dimers via a Channel-Like Structure” (J Med Chem, 2016)
